Assay results as given in the NIST ThermoML archive (doi:10.1021/acs.jced.6b00751).
Numbers after ± are expanded uncertainties.

Details: 101.33 kPa, Liquid, Vibrating tube method

mass density (298.15 K) [kg/m3] | mass density (313.15 K) [kg/m3] | mass density (333.15 K) [kg/m3] | mass density (353.15 K) [kg/m3] | SMILES
1369.9 ± 18 | 1350.4 ± 26 | 1325.2 ± 21 | 1288.4 ± 39 | CCCCn1cc[n+](C)c1.F[P-](F)(F)(F)(F)F [1-butyl-3-methylimidazolium hexafluorophosphate]
1234.1 ± 18 | 1219.1 ± 18 | 1199.1 ± 27 | 1170.4 ± 39 | CCOS(=O)(=O)[O-].CCn1cc[n+](C)c1 [1-ethyl-3-methylimidazolium ethyl sulfate]
